According to article PMC9873307, “Methylone, a rapid acting entactogen with robust anxiolytic and antidepressant-like activity” (Frontiers in Psychiatry, 2023):

Columns and labels:
[1] = test system: vesicular monoamine transporter 2 (VMAT2); set-up: method as in PMID 10528135; details: compared with MDMA; cited from earlier work
[2] = test system: male Sprague Dawley rats; test: Open field test (OFT): locomotor activity and time in center; format: in vivo, rat
Protocol: Male Sprague Dawley rats (Charles River Laboratories) weighing 180–200 g on arrival, were used for all behavioral studies, which took place at Melior Discovery (Exton, PA, USA). Rats acclimated to their home cages for at least 1 week before testing, were maintained in a controlled environment on a 12 h light/dark cycle, with no more than 2 rats per cage. Animals received ad libitum access to standard rodent chow and water and were assigned randomly to treatment groups. All animal use and procedures were in accordance with established protocols approved by the Melior IACUC committee, Melior Standard Operation Procedures (SOP), and Transcend Therapeutics. Distinct cohorts of animals were used for each experiment/Figure presented in this manuscript.
Methylone HCl (0.5–30 mg/kg; Cayman Chemical) or Fluoxetine HCl (10 mg/kg; Sigma-Aldrich) were formulated in sterile 0.9% saline vehicle before IP administration. Control animals received saline vehicle. Methylone or saline was administered 30 min prior to FST or OFT testing sessions. Fluoxetine or saline were administered 23.5, 5, and 1 h prior to testing, consistent with previous studies ([19]).
All studies were performed by an experimenter blind to treatment group and according to standard protocols at Melior Discovery (Exton, PA, USA). The OFT was used to assess both locomotor activity and anxiety-like behavior. The OFT was run in a standard rat OFA chamber (17 ^^′′ × 17 ^^′′ × 12 ^^′′ , Med Associates). After habituation to the testing room and drug injection, rats were assessed for 30 min in the OFT using an automated activity monitoring system (MedAssociates). Locomotor activity was measured by recording the total ambulatory distance traveled (cm), reported in 5-min bins for the duration of the 30 min testing period. The center of the open field was defined as a 12 ^^′′ square, a predefined center setting on the MedAssociates analysis software. Time spent in the center of the open field, an anxiolytic measure, was also recorded for the 30 min testing period.

[3] = test system: mice; set-up: method as in PMID 23603357; details: 3–4 doses of 25 mg/kg over a 2-day period, 3 days after dosing; cited from earlier work

Compound: CNC(C)C(=O)c1ccc2c(c1)OCO2 (stereo not shown) [methylone, 3,4-methylenedioxy-N-methylcathinone]
- lower potency at VMAT2 than MDMA [1]: > 10 fold
- distance traveled, first 5 min ([2]; methylone 0.5–10 mg/kg IP, 30 min before, Figure 4C): did not affect locomotor activity
- distance traveled, first 5 min ([2]; methylone 0.5–30 mg/kg, retest 24 h post-dose, all groups, Figure 4D): locomotor activity returned to baseline
- time spent in the center ([2]; methylone 5–30 mg/kg, 30 min after dosing, 30 min test, Figure 5A): significantly increased time spent in the center
- distance traveled, first 5 min ([2]; methylone 15–30 mg/kg IP, 30 min before, Figure 4C): significantly increased distance traveled
- distance traveled over 30-min session, 5-min bins ([2]; methylone 15–30 mg/kg IP, Figure 4F): increased distance traveled for the duration of the testing session
- immobility in the FST [3]: increased immobility
